Laboratory results published in PubChem BioAssay AID330 (DTP/NCI, 2004).
Where “and” joins values, the source holds several entries; their conditions need not be identical. Identical values can stand only once. Toxic doses and inconclusive results are not listed. Rule for the calls: active = survival T/C of 150% or more; inactive = T/C below 125% in these data.

Test system: P388 leukemia ip, CD2F1 mice, survival T/C
Experiment: NCI In Vivo Anticancer Drug Screen. Data for tumor model P388 Leukemia (intraperitoneal) in CD2F1 (CDF1) mice
Details: endpoint: median survival time, higher = longer survival
How it was run: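 Mice carrying the transplanted tumor received test compound or vehicle. Survival was recorded in each group, and the value is the treated-group measurement divided by that of the vehicle-treated control group.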

[1] = dose: 50.0 mg/kg/injection, schedule: Q01DX005 (ip), vehicle: Klucel (hydroxypropylcellulose) (HPC)
[2] = dose: 100.0 mg/kg/injection, schedule: Q01DX005 (ip), vehicle: Klucel (hydroxypropylcellulose) (HPC)
[3] = dose: 50.0 mg/kg/injection, schedule: Q01DX009 (ip), vehicle: Klucel (hydroxypropylcellulose) (HPC)
[4] = dose: 100.0 mg/kg/injection, schedule: Q01DX009 (ip), vehicle: Klucel (hydroxypropylcellulose) (HPC)
[5] = dose: 200.0 mg/kg/injection, schedule: Q01DX009 (ip), vehicle: Klucel (hydroxypropylcellulose) (HPC)
[6] = dose: 200.0 mg/kg/injection, schedule: Q01DX005 (ip), vehicle: Klucel (hydroxypropylcellulose) (HPC)
[7] = dose: 50.0 mg/kg/injection, schedule: Q01DX009 (ip), vehicle: saline
[8] = dose: 60.0 mg/kg/injection, schedule: Q01DX005 (ip), vehicle: saline with Tween-80
[9] = dose: 120.0 mg/kg/injection, schedule: Q01DX005 (ip), vehicle: saline with Tween-80
[10] = dose: 240.0 mg/kg/injection, schedule: Q01DX005 (ip), vehicle: saline with Tween-80
[11] = dose: 100.0 mg/kg/injection, schedule: Q01DX009 (ip), vehicle: saline with Tween-80
[12] = dose: 200.0 mg/kg/injection, schedule: Q01DX009 (ip), vehicle: saline with Tween-80

Measured: T/C

CCOC(=O)COc1cc2c(cc1C(C)c1ccc(OCc3ccccc3)c(OC)c1)OCO2 (configuration not stated)
inactive: [1] 87 % of control | [2] 90 % of control

COc1ccc(OC)c(NC(=O)SC(C)C)c1
inactive: dose: 60.0 mg/kg/injection, schedule: Q01DX005 (ip), vehicle: Klucel (hydroxypropylcellulose) (HPC) 93 % of control | dose: 120.0 mg/kg/injection, schedule: Q01DX005 (ip), vehicle: Klucel (hydroxypropylcellulose) (HPC) 96 % of control | dose: 240.0 mg/kg/injection, schedule: Q01DX005 (ip), vehicle: Klucel (hydroxypropylcellulose) (HPC) 92 % of control

O=C1CCC2CCCCC2C1 (configuration not stated)
inactive: [3] 97 % of control | [4] 104 % of control | [5] 88 % of control

CCCNC(=O)CCC(NS(=O)(=O)c1ccc(C)cc1)C(=O)O (configuration not stated)
inactive: [1] 100 % of control | [2] 100 % of control | [6] 98 % of control

Cc1ccc(N=Nc2c(-c3ccccc3)nn(C(=S)S)c2C)cc1
inactive: dose: 25.0 mg/kg/injection, schedule: Q04DX002 (ip), vehicle: Klucel (hydroxypropylcellulose) (HPC) 97 % of control | dose: 50.0 mg/kg/injection, schedule: Q04DX002 (ip), vehicle: Klucel (hydroxypropylcellulose) (HPC) 107 % of control | dose: 100.0 mg/kg/injection, schedule: Q04DX002 (ip), vehicle: Klucel (hydroxypropylcellulose) (HPC) 105 % of control | dose: 200.0 mg/kg/injection, schedule: Q04DX002 (ip), vehicle: Klucel (hydroxypropylcellulose) (HPC) 96 % of control | dose: 400.0 mg/kg/injection, schedule: Q04DX002 (ip), vehicle: Klucel (hydroxypropylcellulose) (HPC) 107 % of control

Cc1[nH]oc(=O)c1C(=O)O
inactive: [7] 100 % of control | dose: 100.0 mg/kg/injection, schedule: Q01DX009 (ip), vehicle: saline 99 % of control | dose: 200.0 mg/kg/injection, schedule: Q01DX009 (ip), vehicle: saline 89 % of control

CN(C/C=C/CN(C)C(=S)Nc1ccccc1)C(=S)Nc1ccccc1
inactive: dose: 12.5 mg/kg/injection, schedule: Q01DX009 (ip), vehicle: saline 95 % of control | dose: 25.0 mg/kg/injection, schedule: Q01DX009 (ip), vehicle: saline 106 % of control | dose: 25.0 mg/kg/injection, schedule: Q01DX009 (ip), vehicle: suspension in saline 91 % of control | [7] 90 % of control | dose: 50.0 mg/kg/injection, schedule: Q01DX009 (ip), vehicle: suspension in saline 86 % of control and 87 % of control

CC1C[C@@H]2OC(=O)C(C)[C@@H]2C(O)[C@@]2(C)C(=O)C=CC12 (some centres not stated)
inactive: dose: 1.38 mg/kg/injection, schedule: Q01DX005 (ip), vehicle: Klucel (hydroxypropylcellulose) (HPC) 104 % of control | dose: 2.75 mg/kg/injection, schedule: Q01DX005 (ip), vehicle: Klucel (hydroxypropylcellulose) (HPC) 104 % of control | dose: 5.5 mg/kg/injection, schedule: Q01DX005 (ip), vehicle: Klucel (hydroxypropylcellulose) (HPC) 112 % of control | dose: 11.0 mg/kg/injection, schedule: Q01DX005 (ip), vehicle: Klucel (hydroxypropylcellulose) (HPC) 111 % of control

ClCc1ccc2ccc3ccc(CCl)nc3c2n1
inactive: [8] 103 % of control | [9] 100 % of control | [10] 104 % of control

Cc1ccc(/C=C2/C/C(=C\c3ccc(C)cc3)C2=O)cc1
inactive: dose: 12.5 mg/kg/injection, schedule: Q04DX003 (ip), vehicle: Klucel (hydroxypropylcellulose) (HPC) 94 % of control | dose: 25.0 mg/kg/injection, schedule: Q04DX003 (ip), vehicle: Klucel (hydroxypropylcellulose) (HPC) 92 % of control | dose: 50.0 mg/kg/injection, schedule: Q04DX003 (ip), vehicle: Klucel (hydroxypropylcellulose) (HPC) 87 % of control | dose: 400.0 mg/kg/injection, schedule: Q04DX003 (ip), vehicle: Klucel (hydroxypropylcellulose) (HPC) 88 % of control

O=C(O)Cc1ccc2c(c1)C(=O)c1ccccc1CO2
inactive: dose: 50.0 mg/kg/injection, schedule: Q01DX009 (ip), vehicle: saline with Tween-80 94 % of control | [11] 103 % of control | [12] 100 % of control

CC(C)c1c(OC(=O)N(C)C)c(C#N)c2[nH]c3ccccc3n2c1=O
inactive: [8] 109 % of control | [9] 94 % of control | [10] 86 % of control

CCOC(=O)c1ccc(NC(=S)Nc2ccc(C(=O)OCC)cc2)cc1
inactive: [11] 90 % of control | [12] 90 % of control | dose: 400.0 mg/kg/injection, schedule: Q01DX009 (ip), vehicle: saline with Tween-80 90 % of control

CN(C)Cc1cc(C(=O)c2ccccc2)c(O)cc1O
inactive: dose: 25.0 mg/kg/injection, schedule: Q01DX009 (ip), vehicle: Klucel (hydroxypropylcellulose) (HPC) 103 % of control | [3] 103 % of control

C[C@@H]1C(=O)C[C@H]2C(C)(C)CCC[C@]2(C)[C@@]1(O)CCc1ccoc1
inactive: dose: 25.0 mg/kg/injection, schedule: Q01DX005 (ip), vehicle: Klucel (hydroxypropylcellulose) (HPC) 100 % of control | [1] 100 % of control | [2] 100 % of control | [6] 96 % of control

COC(=O)/C=C(/Sc1nc(Cl)c(Cl)nc1N)C(=O)OC (tested in a mixture with another compound)
inactive: dose: 7.5 mg/kg/injection, schedule: Q01DX005 (ip), vehicle: Klucel (hydroxypropylcellulose) (HPC) 103 % of control | dose: 15.0 mg/kg/injection, schedule: Q01DX005 (ip), vehicle: Klucel (hydroxypropylcellulose) (HPC) 113 % of control | dose: 30.0 mg/kg/injection, schedule: Q01DX005 (ip), vehicle: Klucel (hydroxypropylcellulose) (HPC) 113 % of control

CCOC(=O)/C=C/C(=O)O (tested in a mixture with another compound)
inactive: dose: 100.0 mg/kg/injection, schedule: Q04DX003 (ip), vehicle: saline 100 % of control | dose: 200.0 mg/kg/injection, schedule: Q04DX003 (ip), vehicle: saline 98 % of control | dose: 400.0 mg/kg/injection, schedule: Q04DX003 (ip), vehicle: saline 96 % of control

CCCCCCCCCCCCCCCC(=O)N1CCN(C)CC1
inactive: dose: 25.0 mg/kg/injection, schedule: Q01DX009 (ip), vehicle: saline with Tween-80 115 % of control

CSC(=S)/C=C1\SC=CN1C
inactive: dose: 25.0 mg/kg/injection, schedule: Q04DX002 (ip), vehicle: saline with Tween-80 96 % of control | dose: 50.0 mg/kg/injection, schedule: Q04DX002 (ip), vehicle: saline with Tween-80 100 % of control | dose: 100.0 mg/kg/injection, schedule: Q04DX002 (ip), vehicle: saline with Tween-80 100 % of control

O=C(O)CC1Sc2nc3c(n2C1(O)c1ccccc1)CCCC3 (configuration not stated)
inactive: [3] 109 % of control | [4] 100 % of control | [5] 98 % of control

CC1(C)COC(c2cccc3c2C2C=CC3O2)=N1 (configuration not stated)
inactive: [8] 92 % of control | [9] 97 % of control | [10] 108 % of control

Cc1ccc(OP(=O)(Oc2ccc(C)cc2)Oc2ccc(C)cc2)cc1.Cc1ccc(OP(=O)(Oc2ccc(C)cc2)Oc2ccc(C)cc2)cc1.Cc1ccc(OP(=O)(Oc2ccc(C)cc2)Oc2ccc(C)cc2)cc1.Cc1ccc(OP(=O)(Oc2ccc(C)cc2)Oc2ccc(C)cc2)cc1.[Mn+2].[O-][Cl+3]([O-])([O-])O
inactive: dose: 10.0 mg/kg/injection, schedule: Q01DX001 (ip), vehicle: Klucel (hydroxypropylcellulose) (HPC) 101 % of control | dose: 20.0 mg/kg/injection, schedule: Q01DX001 (ip), vehicle: Klucel (hydroxypropylcellulose) (HPC) 94 % of control | dose: 40.0 mg/kg/injection, schedule: Q01DX001 (ip), vehicle: Klucel (hydroxypropylcellulose) (HPC) 99 % of control

CCB(CC)OC1OC(C2COB(CC)O2)C2OB(CC)OC12 (configuration not stated)
inactive: dose: 50.0 mg/kg/injection, schedule: Q01DX005 (ip), vehicle: saline with Tween-80 103 % of control | dose: 100.0 mg/kg/injection, schedule: Q01DX005 (ip), vehicle: saline with Tween-80 95 % of control | dose: 200.0 mg/kg/injection, schedule: Q01DX005 (ip), vehicle: saline with Tween-80 101 % of control
